The text below walks through data of publication PMC4710668, “Bioactivation of food genotoxicants 5-hydroxymethylfurfural and furfuryl alcohol by sulfotransferases from human, mouse and rat: a comparative study” (Archives of Toxicology, 2014).

Some results are limits rather than exact numbers.

Experiment in all cases: HMF sulfoconjugation assay
Format in all cases: biochemical

Assay [1] deals with T1, mSult1e1 (Mus musculus, UniProt P49891).
T1 construct: made in house; host or cells: Salmonella typhimurium TA1538 (cytosolic fraction, enzyme not purified)
T1 sequence (P49891 1-295): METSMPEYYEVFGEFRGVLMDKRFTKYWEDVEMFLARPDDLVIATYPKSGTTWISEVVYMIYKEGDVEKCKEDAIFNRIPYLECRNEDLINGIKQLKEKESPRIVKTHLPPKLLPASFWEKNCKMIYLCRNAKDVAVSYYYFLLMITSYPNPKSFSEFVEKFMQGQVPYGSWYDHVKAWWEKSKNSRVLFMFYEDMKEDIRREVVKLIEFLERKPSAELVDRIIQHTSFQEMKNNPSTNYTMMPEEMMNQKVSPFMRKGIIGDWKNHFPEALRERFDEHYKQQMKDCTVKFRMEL
The method, then: (§1) Cytosolic fractions containing individual SULT forms were prepared from transgenic S. typhimurium TA1538. Table S1 in the Supplementary Material provides a summary of the thirty SULTs used in the current study together with references describing the cloning of the respective S. typhimurium TA1538 strains. The expressed SULT forms are denoted with the prefixes h, m and r for human, mouse and rat enzymes, respectively. Bacteria were grown in Luria Broth medium containing ampicillin (100 µg/ml) by stirring for 8 h at 200 revolutions/min at 37 °C. The bacterial suspensions were centrifuged at 5,000 g for 10 min. The sediments were washed twice with 25 ml of 10 mM potassium phosphate buffer (pH 7.4)/50 mM potassium chloride (KCP buffer) and centrifuged again. The pellets were taken up in 800 µl KCP buffer and sonicated thrice for 15 s with 30 s pauses in between. The soluble fraction was attained by centrifuging for 1 h at 100,000 g. The supernatants (in the following termed cytosolic preparations) were frozen at −80 °C. The protein concentrations were determined according to a bicinchoninic acid (BCA) assay protocol. The SULT concentrations in the cytosolic preparations were estimated after electrophoretic separation and immunodetection using inclusion bodies of different SULT forms as standards (Teubner et al. [2007]). The preparation of SULT inclusion bodies and the immunodetection of SULTs is described in the Supplementary Material, which also contains a representative immunoblot of different amounts of rSult1a1standard and a cytosolic preparation of S. typhimurium expressing rSult1a1 (Fig. S1).
(§2) The reactions were conducted in mixtures of 100 µl containing 25–200 µg protein, 50 mM potassium phosphate buffer (pH 7.4), 5 mM MgCl2, 50 µM PAPS and different concentrations of HMF at 37 °C. Preliminary experiments ensured that measurements were recorded under ‘linear’ conditions, i.e., doubling of protein concentration or incubation time was doubling the amount of sulfate ester formed. The reactions were stopped after 30 min by adding 300 µl ice-cold 2-propanol, mixed and centrifuged at 15,000 g for 10 min.
(§3) SMF concentrations of the clear supernatants were analyzed by UPLC-MS/MS. The protocol was adapted from the quantification of SMF in plasma samples of HMF-treated mice (Monien et al. [2009]). In short, the supernatants were analyzed using a UPLC system (Waters) connected to a Quattro Premier XE tandem quadrupole mass spectrometer (Waters) using the negative electrospray ionization mode. Samples of 4 µl were injected into a HSS T3 column (1.8 µm, 2.1 × 100 mm; Waters) and eluted with an isocratic flow of 0.35 ml/min 10 mM ammonium acetate/methanol (95:5). The fragmentation reactions of SMF yielding two principal ions, the sulfate ion radical (m/z = 204.9 → 96.0) and the protonated sulfonate ion (m/z = 204.9 → 81.0) were monitored. The tune parameters were as follows: temperature of the electrospray source 120 °C; desolvation temperature 475 °C; desolvation gas nitrogen (800 l/h); cone gas nitrogen (100 l/h); collision gas argon (indicated cell pressure ~5 × 10^−3 mbar). For the fragmentation of SMF, collision energies were 20 and 23 eV for the transitions m/z = 204.9 → 81.0 and m/z = 204.9 → 96.0, respectively. The dwell time was set to 100 ms, and capillary voltage was set to 0.35 kV. The cone and RF1 lens voltages were 32 and 0.2 V, respectively. SMF was quantified using an external calibration line that was linear in the concentration range of 1.0 nM (4 fmol/injection) to 2,500 (10 pmol/injection) SMF (r ^2 ≥ 0.99). Data acquisition and handling were performed with MassLynx 4.1 software (Waters). The limit of detection (LOD) for this technique of 2.5 nM SMF has been reported (Monien et al. [2009]). In the current study, this corresponds to 10 fmol SMF per injection or a reaction rate of 0.5 pmol SMF/mg/min.

Assay [2] concerns the target T2, mSult1d1 (Mus musculus, UniProt Q3UZZ6).
T2 construct: made in house; host or cells: Salmonella typhimurium TA1538 (cytosolic fraction, enzyme not purified)
Here is the method:
as §1, §2, §3

Assay [3] addresses T3, rSult2b1 (Rattus norvegicus, UniProt Q29YR5).
T3 construct: made in house; host or cells: Salmonella typhimurium TA1538 (cytosolic fraction, enzyme not purified)
T3 sequence (Q29YR5 1-340): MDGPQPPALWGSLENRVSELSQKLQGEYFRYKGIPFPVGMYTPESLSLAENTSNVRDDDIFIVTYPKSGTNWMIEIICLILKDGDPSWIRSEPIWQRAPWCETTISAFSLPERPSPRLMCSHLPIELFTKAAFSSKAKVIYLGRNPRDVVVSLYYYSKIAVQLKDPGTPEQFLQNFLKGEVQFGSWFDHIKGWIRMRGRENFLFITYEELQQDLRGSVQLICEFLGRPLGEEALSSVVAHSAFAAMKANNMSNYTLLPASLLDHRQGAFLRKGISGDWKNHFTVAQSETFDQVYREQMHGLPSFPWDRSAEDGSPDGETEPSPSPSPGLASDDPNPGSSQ
Here is the method: as §1, §2, §3

The target of assay [4] is T4, hSULT2B1a (Homo sapiens, UniProt O00204).
T4 construct: made in house; host or cells: Salmonella typhimurium TA1538 (cytosolic fraction, not purified)
T4 sequence (O00204 1-350 isoform O00204-2): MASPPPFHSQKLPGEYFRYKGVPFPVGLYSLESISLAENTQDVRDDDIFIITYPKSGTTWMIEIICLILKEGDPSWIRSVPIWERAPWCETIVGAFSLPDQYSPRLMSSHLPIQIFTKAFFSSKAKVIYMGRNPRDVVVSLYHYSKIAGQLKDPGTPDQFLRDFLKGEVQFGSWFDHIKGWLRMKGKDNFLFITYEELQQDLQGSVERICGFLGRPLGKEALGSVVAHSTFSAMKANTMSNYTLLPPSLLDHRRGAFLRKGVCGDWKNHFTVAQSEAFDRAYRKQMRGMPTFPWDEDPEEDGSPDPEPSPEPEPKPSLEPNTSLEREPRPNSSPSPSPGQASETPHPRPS
Here is the method: as §1, §2, §3

T2 sequence (Q3UZZ6 whole entry): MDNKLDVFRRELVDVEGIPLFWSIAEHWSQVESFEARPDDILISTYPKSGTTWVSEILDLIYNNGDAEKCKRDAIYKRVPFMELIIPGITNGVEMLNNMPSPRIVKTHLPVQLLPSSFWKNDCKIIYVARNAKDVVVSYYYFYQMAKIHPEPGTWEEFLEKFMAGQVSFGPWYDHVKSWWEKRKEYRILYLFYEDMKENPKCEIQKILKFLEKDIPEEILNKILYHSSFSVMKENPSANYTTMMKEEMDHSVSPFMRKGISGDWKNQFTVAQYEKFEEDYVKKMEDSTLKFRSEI

For the compound `O=Cc1ccc(CO)o1` [HMF, 5-Hydroxymethylfurfural], the Rate of sulfoconjugation is 3.7 ± 0.3 pmol/mg/min in assay [1] (0.1 mM HMF); 35.5 ± 2.6 pmol/mg/min in assay [1] (1 mM HMF); 226 ± 9 pmol/mg/min in assay [1] (10 mM HMF); 534 ± 52 pmol/mg/min in assay [1] (100 mM HMF); 124 ± 33 pmol/mg/min in assay [2] (0.1 mM HMF); 1,160 ± 260 pmol/mg/min in assay [2] (1 mM HMF). Also, the Rate of sulfoconjugation in assay [2] (10 mM HMF) is listed as 6,750 ± 1,190 pmol/mg/min; in assay [2] (100 mM HMF) it was 22,400 ± 2,400 pmol/mg/min; in assay [3] (0.1 mM HMF), less than 0.5 pmol/mg/min; in assay [3] (1 mM HMF), less than 0.5 pmol/mg/min; in assay [3] (10 mM HMF), less than 0.5 pmol/mg/min; in assay [3] (100 mM HMF), less than 0.5 pmol/mg/min. Further, the Rate of sulfoconjugation in assay [4] (0.1 mM HMF), in assay [4] (1 mM HMF), in assay [4] (10 mM HMF) and in assay [4] (100 mM HMF) was less than 0.5 pmol/mg/min each time. Besides, in assay [2] (HMF sulfoconjugation, Michaelis-Menten fit), the “K M” value is reported as 31.9 ± 5.7 mM.
